# pEC50, pIC50: −log10 of the molar value.
# Key:
# [1] = Acute toxicity in female ICR mouse assessed as effect on pathological damage in heart at 2000 mg/kg, IG measured after 14 days by H and E staining based analysis; assay type: organism-based; conditions: in vivo, po, 336 h, time 14 day
# [2] = biological target: Voltage-gated inwardly rectifying potassium channel KCNH2 (Homo sapiens, UniProt Q12809); experiment: Inhibition of human ERG expressed in CHO cells at holding potential of -80 mV by automated patch clamp electrophysiological method; assay type: toxicity, cell-based
# [3] = biological target: T1, Cytochrome P450 1A2 (Homo sapiens, UniProt P05177); experiment: Inhibition of CYP1A2 in human liver microsomes preincubated for 10 mins followed by NADPH addition and measured after 15 mins by LC/MS/MS analysis
# T1 sequence (P05177 whole entry): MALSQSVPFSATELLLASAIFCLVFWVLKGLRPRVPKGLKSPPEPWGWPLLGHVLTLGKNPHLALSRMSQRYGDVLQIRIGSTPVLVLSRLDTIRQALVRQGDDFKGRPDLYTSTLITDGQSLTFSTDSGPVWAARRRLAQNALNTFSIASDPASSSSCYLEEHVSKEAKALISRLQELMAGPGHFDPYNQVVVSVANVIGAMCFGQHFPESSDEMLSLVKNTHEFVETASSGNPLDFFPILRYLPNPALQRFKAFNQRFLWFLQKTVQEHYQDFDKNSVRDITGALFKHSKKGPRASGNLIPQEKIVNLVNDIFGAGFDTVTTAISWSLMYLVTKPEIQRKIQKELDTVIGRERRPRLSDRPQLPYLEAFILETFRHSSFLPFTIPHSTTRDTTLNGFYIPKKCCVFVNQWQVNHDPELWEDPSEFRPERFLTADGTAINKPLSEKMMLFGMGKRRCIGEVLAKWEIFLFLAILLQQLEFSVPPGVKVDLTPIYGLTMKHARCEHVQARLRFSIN
# [4] = tested on: Human immunodeficiency virus 1; experiment: Antiviral activity against HIV-1 harboring RT F227L/V106A double mutant infected in human MT4 cells assessed as protection against virus-induced cytopathic effect incubated for 5 days by MTT assay; assay type: functional, organism-based; conditions: Human immunodeficiency virus 1, MT4, 120 h
# [5] = tested on: Human immunodeficiency virus 1; experiment: Antiviral activity against HIV-1 harboring RT Y188L mutant infected in human MT4 cells assessed as protection against virus-induced cytopathic effect incubated for 5 days by MTT assay; assay type: functional, organism-based; conditions: Human immunodeficiency virus 1, MT4, 120 h
# [6] = Selectivity index, ratio of CC50 for human MT4 cells to EC50 for wild type HIV-1 IIIB infected in human MT4 cellS; conditions: MT4 cells
# [7] = Acute toxicity in female ICR mouse assessed as effect on pathological damage in kidney at 2000 mg/kg, IG measured after 14 days by H and E staining based analysis; assay type: organism-based; conditions: in vivo, po, 336 h, time 14 day
# [8] = tested on: Human immunodeficiency virus 1; experiment: Potency index, ratio of 4-(8-(3-nitrophenyl)-1,7-naphthyridin-6-yl)benzoic acid MIC to test compound MIC for antiviral activity against wildtype HIV-1 IIIB infected in human MT4 cells assessed as protection against virus-induced cytopathic effect incubated for 5 days by MTT assay; assay type: functional; conditions: time 5 day
# [9] = biological target: Cytochrome P450 2D6 (Homo sapiens, UniProt P10635); experiment: Inhibition of CYP2D6 in human liver microsomes preincubated for 10 mins followed by NADPH addition and measured after 15 mins by LC/MS/MS analysis
# [10] = Acute toxicity in female ICR mouse assessed as effect on pathological damage in brain at 2000 mg/kg, IG measured after 14 days by H and E staining based analysis; assay type: organism-based; conditions: in vivo, po, 336 h, time 14 day
# [11] = tested on: Human immunodeficiency virus 1; experiment: Antiviral activity against HIV-1 harboring RT E138K mutant infected in human MT4 cells assessed as protection against virus-induced cytopathic effect incubated for 5 days by MTT assay; assay type: functional, organism-based; conditions: Human immunodeficiency virus 1, MT4, 120 h
# [12] = Acute toxicity in male ICR mouse assessed as effect on body weight at 2000 mg/kg, IG measured after 14 days; assay type: organism-based; conditions: in vivo, po, 336 h, time 14 day
# [13] = Acute toxicity in female ICR mouse assessed as effect on pathological damage in lung at 2000 mg/kg, IG measured after 14 days by H and E staining based analysis; assay type: organism-based; conditions: in vivo, po, 336 h, time 14 day
# [14] = Metabolic stability in rat liver microsomes assessed as half-life at 0.1 uM preincubated for 10 mins followed by NADPH addition and measured upto 60 mins by LC-MS/MS analysis; assay type: ADME, Microsome; conditions: time < 70 min
# [15] = biological target: hERG (Homo sapiens, UniProt Q12809); experiment: Inhibition of human ERG expressed in CHO cells at holding potential of -80 mV at >40 uM by automated patch clamp electrophysiological method relative to control; assay type: toxicity, cell-based; conditions: CHO cells that express hERG
# [16] = Solubility of compound in phosphate buffer at pH 7.4 measured after 24 hrs by HPLC analysis; assay type: physicochemical
# [17] = biological target: Cytochrome P450 2C19 (Homo sapiens, UniProt P33261); experiment: Inhibition of CYP2C19 in human liver microsomes preincubated for 10 mins followed by NADPH addition and measured after 15 mins by LC/MS/MS analysis
# [18] = Acute toxicity in male ICR mouse assessed as effect on behavior at 2000 mg/kg, IG measured after 14 days; assay type: organism-based; conditions: in vivo, po, 336 h, time 14 day
# [19] = Solubility of compound in Watson's distilled pure water measured after 24 hrs by HPLC analysis; assay type: physicochemical
# [20] = Solubility of compound in phosphate buffer at pH 7.0 measured after 24 hrs by HPLC analysis; assay type: physicochemical
# [21] = Metabolic stability in dog liver microsomes assessed as half-life at 0.1 uM preincubated for 10 mins followed by NADPH addition and measured upto 60 mins by LC-MS/MS analysis; assay type: ADME, Canis lupus familiaris, Microsome; conditions: time < 70 min
# [22] = Cytotoxicity against human MT4 cells assessed as reduction in cell viability measured after 5 days by MTT assay; conditions: MT4 cells
# [23] = Acute toxicity in female ICR mouse assessed as effect on behavior at 2000 mg/kg, IG measured after 14 days; assay type: organism-based; conditions: in vivo, po, 336 h, time 14 day
# [24] = tested on: Human immunodeficiency virus 1; experiment: Antiviral activity against HIV-1 harboring RT K103N/Y181C double mutant infected in human MT4 cells assessed as protection against virus-induced cytopathic effect incubated for 5 days by MTT assay; assay type: functional, organism-based; conditions: Human immunodeficiency virus 1, MT4, 120 h
# [25] = Solubility of compound in phosphate buffer at pH 2.0 measured after 24 hrs by HPLC analysis; assay type: physicochemical
# [26] = Acute toxicity in male ICR mouse assessed as effect on pathological damage in heart at 2000 mg/kg, IG measured after 14 days by H and E staining based analysis; assay type: organism-based; conditions: in vivo, po, 336 h, time 14 day
# [27] = biological target: Cytochrome P450 3A4 (Homo sapiens, UniProt P08684); experiment: Inhibition of CYP3A4 in human liver microsomes using midazolam as substrate preincubated for 10 mins followed by NADPH addition and measured after 15 mins by LC/MS/MS analysis
# [28] = Acute toxicity in female ICR mouse assessed as effect on pathological damage in spleen at 2000 mg/kg, IG measured after 14 days by H and E staining based analysis; assay type: organism-based; conditions: in vivo, po, 336 h, time 14 day
# [29] = Acute toxicity in male ICR mouse assessed as effect on pathological damage in brain at 2000 mg/kg, IG measured after 14 days by H and E staining based analysis; assay type: organism-based; conditions: in vivo, po, 336 h, time 14 day
# [30] = tested on: Human immunodeficiency virus 1; experiment: Antiviral activity against HIV-1 harboring RT L100I mutant infected in human MT4 cells assessed as protection against virus-induced cytopathic effect incubated for 5 days by MTT assay; assay type: functional, organism-based; conditions: Human immunodeficiency virus 1, MT4, 120 h
# Chain of Cytochrome P450 3A4 (P08684 whole entry): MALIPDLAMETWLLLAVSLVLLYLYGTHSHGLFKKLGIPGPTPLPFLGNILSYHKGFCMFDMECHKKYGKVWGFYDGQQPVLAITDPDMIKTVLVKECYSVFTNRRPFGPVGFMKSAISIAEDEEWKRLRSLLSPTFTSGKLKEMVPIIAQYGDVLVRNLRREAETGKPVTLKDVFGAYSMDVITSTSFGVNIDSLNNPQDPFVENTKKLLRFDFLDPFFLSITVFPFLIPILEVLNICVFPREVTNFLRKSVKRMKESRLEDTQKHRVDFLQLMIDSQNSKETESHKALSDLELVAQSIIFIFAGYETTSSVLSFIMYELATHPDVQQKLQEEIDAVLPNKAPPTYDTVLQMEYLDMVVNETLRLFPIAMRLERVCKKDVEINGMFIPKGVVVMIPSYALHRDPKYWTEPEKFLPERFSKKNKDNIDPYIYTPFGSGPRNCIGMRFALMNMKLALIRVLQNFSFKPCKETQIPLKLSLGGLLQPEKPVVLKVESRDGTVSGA
# Chain of Cytochrome P450 2D6 (P10635 whole entry): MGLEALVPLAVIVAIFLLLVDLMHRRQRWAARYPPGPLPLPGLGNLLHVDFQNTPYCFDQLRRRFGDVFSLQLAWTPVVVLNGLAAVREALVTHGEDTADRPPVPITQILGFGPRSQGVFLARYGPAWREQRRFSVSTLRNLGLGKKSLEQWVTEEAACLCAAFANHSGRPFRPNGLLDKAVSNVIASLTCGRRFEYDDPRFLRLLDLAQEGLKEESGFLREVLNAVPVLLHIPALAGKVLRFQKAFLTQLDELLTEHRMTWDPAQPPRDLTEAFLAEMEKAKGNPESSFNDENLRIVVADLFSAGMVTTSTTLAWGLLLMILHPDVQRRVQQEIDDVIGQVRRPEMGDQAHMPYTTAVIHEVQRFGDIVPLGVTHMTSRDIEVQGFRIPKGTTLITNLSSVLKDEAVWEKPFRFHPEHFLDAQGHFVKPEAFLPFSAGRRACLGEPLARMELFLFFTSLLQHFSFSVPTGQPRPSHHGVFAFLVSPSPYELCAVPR
# Chain of Cytochrome P450 2C19 (P33261 whole entry): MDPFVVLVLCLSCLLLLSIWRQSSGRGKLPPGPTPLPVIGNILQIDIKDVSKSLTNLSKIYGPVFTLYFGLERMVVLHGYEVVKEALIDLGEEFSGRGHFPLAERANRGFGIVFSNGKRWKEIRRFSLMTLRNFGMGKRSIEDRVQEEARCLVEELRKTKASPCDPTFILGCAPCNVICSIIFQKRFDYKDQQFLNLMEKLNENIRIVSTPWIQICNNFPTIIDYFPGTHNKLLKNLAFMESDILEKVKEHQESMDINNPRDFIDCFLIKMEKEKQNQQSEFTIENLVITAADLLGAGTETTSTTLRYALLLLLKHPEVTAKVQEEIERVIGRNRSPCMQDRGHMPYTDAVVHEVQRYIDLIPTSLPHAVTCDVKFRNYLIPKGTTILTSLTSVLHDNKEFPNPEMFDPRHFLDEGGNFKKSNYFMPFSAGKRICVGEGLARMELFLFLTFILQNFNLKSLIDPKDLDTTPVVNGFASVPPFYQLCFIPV
# Chain of Voltage-gated inwardly rectifying potassium channel KCNH2 (Q12809 whole entry): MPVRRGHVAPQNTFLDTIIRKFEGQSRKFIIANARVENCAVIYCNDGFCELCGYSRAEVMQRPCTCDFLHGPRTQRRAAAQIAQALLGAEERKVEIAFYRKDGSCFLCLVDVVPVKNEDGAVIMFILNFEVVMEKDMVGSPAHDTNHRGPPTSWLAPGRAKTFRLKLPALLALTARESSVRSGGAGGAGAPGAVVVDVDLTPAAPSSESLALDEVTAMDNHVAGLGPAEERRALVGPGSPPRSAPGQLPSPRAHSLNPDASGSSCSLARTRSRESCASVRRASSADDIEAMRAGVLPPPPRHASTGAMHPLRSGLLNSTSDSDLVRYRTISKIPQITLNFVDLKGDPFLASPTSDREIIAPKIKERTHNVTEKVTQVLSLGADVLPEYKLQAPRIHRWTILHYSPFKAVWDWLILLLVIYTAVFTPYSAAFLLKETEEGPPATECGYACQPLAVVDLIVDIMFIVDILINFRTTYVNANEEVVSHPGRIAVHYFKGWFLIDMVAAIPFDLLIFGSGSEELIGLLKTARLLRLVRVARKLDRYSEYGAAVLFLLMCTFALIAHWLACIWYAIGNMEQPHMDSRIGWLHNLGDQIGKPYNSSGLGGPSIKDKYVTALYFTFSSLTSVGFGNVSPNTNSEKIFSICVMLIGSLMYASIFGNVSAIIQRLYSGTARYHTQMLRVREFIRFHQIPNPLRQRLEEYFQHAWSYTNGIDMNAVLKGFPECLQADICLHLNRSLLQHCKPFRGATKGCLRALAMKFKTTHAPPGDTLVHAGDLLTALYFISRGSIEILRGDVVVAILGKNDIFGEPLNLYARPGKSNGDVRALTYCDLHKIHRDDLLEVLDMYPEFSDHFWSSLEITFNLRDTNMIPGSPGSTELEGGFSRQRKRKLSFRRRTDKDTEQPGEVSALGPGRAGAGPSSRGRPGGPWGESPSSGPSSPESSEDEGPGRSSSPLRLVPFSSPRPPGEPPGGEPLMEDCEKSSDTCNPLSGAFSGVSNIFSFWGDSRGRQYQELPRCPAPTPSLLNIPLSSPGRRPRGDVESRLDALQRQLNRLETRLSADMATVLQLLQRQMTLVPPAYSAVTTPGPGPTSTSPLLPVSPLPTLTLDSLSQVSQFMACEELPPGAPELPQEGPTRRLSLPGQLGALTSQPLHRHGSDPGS
# Chain of hERG (Q12809 whole entry): as above
compound,measurement,setting,value
Cc1cc(-c2ccncc2)cc(C)c1Nc1nc(Nc2ccc(C#N)cc2)ncc1-c1cn[nH]c1,Activity,[1],Non-toxic
same,pIC50,[2],< 4.40
same,pIC50,[3],< 4.30
same,pEC50,[4],7.10
same,pEC50,[5],7.89
same,selectivity ratio,[6],> 52600
same,Activity,[7],Non-toxic
same,Ratio,[8],37
same,pIC50,[9],< 4.30
same,Activity,[10],Non-toxic
same,pEC50,[11],7.96
same,Activity,[12],Non-toxic
same,Activity,[13],Non-toxic
same,half-life at 0.1 µM,[14],20.4 min
same,inhibition at 40 µM,[15],31.4%
same,solubility at 24 h,[16],< 1 µg/mL
same,pIC50,[17],< 4.30
same,Activity,[18],Non-toxic
same,solubility at 24 h,[19],1.3 µg/mL
same,solubility at 24 h,[20],< 1 µg/mL
same,half-life at 0.1 µM,[21],58.8 min
same,CC50 at 120 h,[22],> 273000 nM
same,Activity,[23],Non-toxic
same,pEC50,[24],7.38
same,solubility at 24 h,[25],1190 µg/mL
same,Activity,[26],Non-toxic
same,pIC50,[27],< 4.30
same,Activity,[28],Non-toxic
same,Activity,[29],Non-toxic
same,pEC50,[30],8.05

# — ChEMBL document CHEMBL6120973 (J Med Chem, 2024)
